Experimental data reported in PMC11172257 (Emerging Microbes & Infections, 2024).
Converted amounts (≈) assume the structure as drawn.

System: K. pneumonia HSD
Assay: microbe, parasite or virus in culture
Parameters: species or system bacterial strains
Details: not given

SMILES	MIC (μg/mL)^a / K. pneumonia HSD
CO/N=C(\C(=O)N[C@@H]1C(=O)N2C(C(=O)[O-])=C(C[N+]3(C)CCCC3)CS[C@H]12)c1csc(N)n1 [Cefepime]	128 µg/mL (≈ 266 µM)

Same assay, conditions: Klebsiella pneumoniae, read-out: MIC (μg/mL)^a / K. pneumonia HSD

MIC	SMILES
> 128 µg/mL	CC(C)(O/N=C(\C(=O)N[C@@H]1C(=O)N2C(C(=O)[O-])=C(C[n+]3ccccc3)CS[C@H]12)c1csc(N)n1)C(=O)O [ceftazidime]
32 µg/mL (≈ 67.3 µM)	C[C@@H](O)[C@H]1C(=O)N2C(C(=O)O)=C(S[C@@H]3CN[C@H](C(=O)Nc4cccc(C(=O)O)c4)C3)[C@H](C)[C@H]12 [Ertapenem]
4 µg/mL (≈ 10.4 µM)	C[C@@H](O)[C@H]1C(=O)N2C(C(=O)O)=C(S[C@@H]3CN[C@H](C(=O)N(C)C)C3)[C@H](C)[C@H]12 [Meropenem]

Second part, the compound before the results:

SMILES	MIC
CC1(C)S[C@@H]2[C@H](NC(=O)[C@H](N)c3ccc(O)cc3)C(=O)N2[C@H]1C(=O)O [Amoxicillin]	> 32 µg/mL
NCC[C@H](O)C(=O)N[C@@H]1C[C@H](N)[C@@H](O[C@H]2O[C@H](CN)[C@@H](O)[C@H](O)[C@H]2O)[C@H](O)[C@H]1O[C@H]1O[C@H](CO)[C@@H](O)[C@H](N)[C@H]1O [Amikacin]	> 128 µg/mL
